What follows are substances tested on P. falciparum Sierra Leone D6 clone (assay: WHO/TDR in vitro antimalarial screen (uptake of radiolabeled nucleic acid precursor), D6 clone). Conditions: mefloquine-resistant, chloroquine-sensitive, second value in brackets not explained.
Assay type: cell-based, Plasmodium falciparum
Method: (§1) All test compounds are solubilized in DMSO and diluted 400 fold (to rule out a DMSO effect) in culture medium with plasma for a starting concentration of at least 12,500 ng/mL. Drugs are subsequently diluted five fold using the Cetus Pro/Pette system utilizing a range of concentrations from 0.8 ng/mL to 12,500 ng/mL. Fifty percent inhibitory concentrations are reported in ng/mL.
(§2) The D6 African P. falciparum clone is sensitive to chloroquine, pyrimethamine and sulfadoxine but resistant to mefloquine. The W2 Indochina P. falciparum clone is resistant to chloroquine, pyrimethamine and sulfadoxine but sensitive to mefloquine. The K1 P. falciparum is a resistant strain, where NF54 P. falciparum is a sensitive strain.
For “(+)-Octahydro-3,6α-dimethyl-3,12-epoxy-9β-(3′-(m-fluorophenyl)propyl)-12H-pyrano[4,3j]-1,2-benzodioxepin [Compound 37]”, the “P. falciparum (IC50) D6” value was 8.28 ng/mL.

What follows are substances tested on P. falciparum Indochina W2 clone (assay: WHO/TDR in vitro antimalarial screen, W2 clone). Conditions: chloroquine-resistant, mefloquine-sensitive, second value in brackets not explained.
Assay type: cell-based, Plasmodium falciparum
Method: as §1, §2
With “(+)-Octahydro-3,6α-dimethyl-3,12-epoxy-9β-(3′-(3,5-bistrifluoromethylphenyl)propyl)-12H-pyrano[4,3j]-1,2-benzodioxepin [Compound 40]” the “P. falciparum (IC50) W2” value was 7.11 ng/mL.
In the case of “(+)-Octahydro3,6α-dimethyl-3,12-epoxy-9β-(3′-(3,5-difluorophenyl)propyl)-12H-pyrano[4,3j]-1,2-benzodioxepin [Compound 41]”, the “P. falciparum (IC50) W2” value is reported as 6.70 ng/mL.
For “(+)-Octahydro-3,6α-dimethyl-3,12-epoxy-9β-(3′-(m-fluorophenyl)propyl)-12H-pyrano[4,3j]-1,2-benzodioxepin [Compound 37]”, the “P. falciparum (IC50) W2” value was 26.83 ng/mL.

What follows are substances tested on P. falciparum K1 (assay: WHO/TDR in vitro antimalarial screen, K1). Conditions: K1, chloroquine-resistant.
Assay type: cell-based, Plasmodium falciparum
Method: as §1, with “[…]. All” for “All”
as §2
“(+)-Octahydro-3,6α-dimethyl-3,12-epoxy-9β-(3′-(m-fluorophenyl)propyl)-12H-pyrano[4,3j]-1,2-benzodioxepin [Compound 37]” was tested, and the “P. falciparum (IC50) K1” value was 11.56 ng/mL.
quinine [reference compound] was tested, and the “P. falciparum (IC50) K1” value was 99.60 ng/mL.

Each substance was assayed on P. falciparum NF54 (assay: WHO/TDR in vitro antimalarial screen, NF54). Conditions: NF54, chloroquine-sensitive; second value in brackets not explained.
Assay type: cell-based, Plasmodium falciparum
Method: as §1, with “[…]. All” for “All”
as §2
For “(+)-Octahydro-3,6α-dimethyl-3,12-epoxy-9β-(3′-(m-fluorophenyl)propyl)-12H-pyrano[4,3j]-1,2-benzodioxepin [Compound 37]”, the “P. falciparum (IC50) NF54” value was 41.76 (27.33) ng/mL.
quinine [reference compound] was tested, and the “P. falciparum (IC50) NF54” value was 9.08 ng/mL.

These substances were tested on P. berghei N (assay: in vivo Peter's 4-day antimalarial test in mice, P. berghei N). Conditions: mice, oral, 4-day test; unit not given.
Parameters: P. berghei N P.O. ED50 / P. berghei N P.O. ED90: unit not given beside the values
Method: (§3) The parasitemia is determined on the day following the last treatment—day 4 to determine qualitatively the presence and degree of activity at the screening dose.
With “(+)-Octahydro-3,6α-dimethyl-3,12-epoxy-9β-(3′-(3,5-bistrifluoromethylphenyl)propyl)-12H-pyrano[4,3j]-1,2-benzodioxepin [Compound 40]” the “P. berghei N P.O. ED50” value was <10 and the “P. berghei N P.O. ED90” value was <10.
“(+)-Octahydro3,6α-dimethyl-3,12-epoxy-9β-(3′-(3,5-difluorophenyl)propyl)-12H-pyrano[4,3j]-1,2-benzodioxepin [Compound 41]” was tested, and the “P. berghei N P.O. ED50” value was <10 and the “P. berghei N P.O. ED90” value was <10.
With “(+)-Octahydro-3,6α-dimethyl-3,12-epoxy-9β-(3′-(m-fluorophenyl)propyl)-12H-pyrano[4,3j]-1,2-benzodioxepin [Compound 37]” the “P. berghei N P.O. ED50” value was 0.9 (0.38-1.9) and the “P. berghei N P.O. ED90” value was 3.4 (1.45-7.5).
For quinine [reference compound], the “P. berghei N P.O. ED50” value was 71 and the “P. berghei N P.O. ED90” value was 118.

Same assay, conditions: mice, subcutaneous, 4-day test; unit not given
For “(+)-Octahydro-3,6α-dimethyl-3,12-epoxy-9β-(3′-(3,5-bistrifluoromethylphenyl)propyl)-12H-pyrano[4,3j]-1,2-benzodioxepin [Compound 40]”, the “P. berghei N S.C. ED50” value was <10 and the “P. berghei N S.C. ED90” value was <10.
With “(+)-Octahydro3,6α-dimethyl-3,12-epoxy-9β-(3′-(3,5-difluorophenyl)propyl)-12H-pyrano[4,3j]-1,2-benzodioxepin [Compound 41]” the “P. berghei N S.C. ED50” value was <10 and the “P. berghei N S.C. ED90” value was <10.
In the case of “(+)-Octahydro-3,6α-dimethyl-3,12-epoxy-9β-(3′-(m-fluorophenyl)propyl)-12H-pyrano[4,3j]-1,2-benzodioxepin [Compound 37]”, the “P. berghei N S.C. ED50” value is reported as 0.46 (0.19-1.1) and the “P. berghei N S.C. ED90” value is reported as 0.85 (0.36-2.3).
In the case of quinine [reference compound], the “P. berghei N S.C. ED50” value is reported as 25 and the “P. berghei N S.C. ED90” value is reported as 190.

Each substance was assayed on P. yoelli ssp. NS (assay: in vivo 4-day antimalarial test in mice, P. yoelli ssp. NS). Conditions: subcutaneous; unit inferred.
Method: as §3
In the case of quinine [reference compound], the P. yoelli ssp. NS (S.C.) ED50 is reported as 128 mg/kg.

Same assay, conditions: subcutaneous; unit not given
With “(+)-Octahydro-3,6α-dimethyl-3,12-epoxy-9β-(3′-(m-fluorophenyl)propyl)-12H-pyrano[4,3j]-1,2-benzodioxepin [Compound 37]” the “P. yoelli ssp. NS (S.C.) ED50” value was 0.58 (0.45-1.0) and the “P. yoelli ssp. NS (S.C.) ED90” value was 1.00 (0.8-1.8).

The substances below were run on P. falciparum D6 (Sierra Leone) (assay: antimalarial parasite LDH (pLDH) assay, D6). Conditions: LDH assay, Table 6.
Assay type: cell-based, Plasmodium falciparum
Method: (§4) The Thad Cochran National Center for Natural Products Research (University of Mississippi) in vitro antimalarial screen was conducted using an enzyme assay for detection of P. falciparum (see procedure below). This assay is based on the observation that lactate dehydrogenase (LDH) of P. falciparum is distinguishable from host LDH activity. P. falciparum LDH rapidly uses 3-acetyl pyridine nicotinamide adenine dinucleotide (APAD) as a coenzyme in the biotransformation of […].^38 The same process is carried out in human red blood cells at a very slow rate.
(§5) The “Antimalarial parasite LDH assay” is currently being conducted according the following procedure: prepare a suspension of RBC with a 2% parasitemia and 2% hematocrit in malaria complete medium. Dispense 200 μl aliquots of this suspension into each well of a 96 well microtiter plate. Add 10 μl volumes of the drugs to be tested in duplicate to the appropriate wells. Place the plates into humidified chamber and flush the cultures with a gas mixture consisting of 90% N2, 5% O2, and 5% CO2. Transfer the chamber containing the plates to an incubator, and incubate for 48 hours at 37° C. After 48 hours add 100 μl aliquots of the Malstat™ reagent to each well of a new 96-well microtiter plate Resuspend the cultures from the assay plate by mixing each well up and down several times. Remove 20 μl from each well of the resuspend culture and add to the plate containing the Malstat™ reagent. Incubate the plates at room temperature for 30 minutes. After 30 minutes, add to each well 20 μl of the 1:1 mixture of the NBT/PES solution (2 mg/ml and 0.1 mg/ml, respectively). Incubate the plates in the dark for 1 hour. Add 100 μl of 5% acetic acid solution to stop the reaction. The plate is then read at an endpoint of approximately 650 nm. The dose response curves are generated using Microsoft Excel.
(§6) Antimalarial activity of the analogues was determined in vitro on chloroquine sensitive (D)6, Sierra Leone) and resistant (W2, IndoChina) strains of Plasmodium falciparum. The 96 well microplate assay is based on evaluation of the effect of the compounds on the growth of asynchronous cultures of P. falciparum, determined by the assay of parasite lactate dehydrogenase (pLDH) activity.^28 The appropriate dilutions of the compounds were prepared in DMSO or RPMI-1640 medium and added to the cultures of P. falciparum (2% hematocrit, 2% parasitemia) set up in clear flat bottomed 96 well plates. The plates were placed into the humidified chamber and flushed with a gas mixture of 90% N2, 5% CO2 & 5% O2. The cultures were incubated at 37° C. for 48 hours. Growth of the parasite in each well was determined by pLDH assay using Malstat® reagent. The medium and RBC controls were also set-up in each plate. The standard antimalarial agents, chloroquine and artemisinin, were used as the positive controls while DMSO was tested as the negative control.
For “(+)-Octahydro-3,6α-dimethyl-3,12-epoxy-9β-(3′-(3,5-bistrifluoromethylphenyl)propyl)-12H-pyrano[4,3j]-1,2-benzodioxepin [Compound 40]”, the “P. falciparum (IC50) D6” value was 12 ng/mL.
With “(+)-Octahydro3,6α-dimethyl-3,12-epoxy-9β-(3′-(3,5-difluorophenyl)propyl)-12H-pyrano[4,3j]-1,2-benzodioxepin [Compound 41]” the “P. falciparum (IC50) D6” value was 3.8 ng/mL.
With “(+)-Octahydro-3,6α-dimethyl-3,12-epoxy-9β-(3′-(m-fluorophenyl)propyl)-12H-pyrano[4,3j]-1,2-benzodioxepin [Compound 37]” the “P. falciparum (IC50) D6” value was 11.0 ng/mL.

Same assay, conditions: Selectivity Index = IC50 (Vero cells)/IC50 (P. falciparum), D6
In the case of “(+)-Octahydro-3,6α-dimethyl-3,12-epoxy-9β-(3′-(3,5-bistrifluoromethylphenyl)propyl)-12H-pyrano[4,3j]-1,2-benzodioxepin [Compound 40]”, the “S. I. (D6)” value is reported as >40.
With “(+)-Octahydro3,6α-dimethyl-3,12-epoxy-9β-(3′-(3,5-difluorophenyl)propyl)-12H-pyrano[4,3j]-1,2-benzodioxepin [Compound 41]” the “S. I. (D6)” value was >125.
“(+)-Octahydro-3,6α-dimethyl-3,12-epoxy-9β-(3′-(m-fluorophenyl)propyl)-12H-pyrano[4,3j]-1,2-benzodioxepin [Compound 37]” was tested, and the “S. I. (D6)” value was >43.0.

The substances below were run on P. falciparum W2 (IndoChina) (assay: antimalarial parasite LDH (pLDH) assay, W2). Conditions: LDH assay, Table 6.
Assay type: cell-based, Plasmodium falciparum
Method: as §4, §5
as §6, with “plate.” for “plate. The standard antimalarial agents, chloroquine and artemisinin, were used as the positive controls while DMSO was tested as the negative control.”
For “(+)-Octahydro-3,6α-dimethyl-3,12-epoxy-9β-(3′-(3,5-bistrifluoromethylphenyl)propyl)-12H-pyrano[4,3j]-1,2-benzodioxepin [Compound 40]”, the “P. falciparum (IC50) W2” value was 9.5 ng/mL.
For “(+)-Octahydro3,6α-dimethyl-3,12-epoxy-9β-(3′-(3,5-difluorophenyl)propyl)-12H-pyrano[4,3j]-1,2-benzodioxepin [Compound 41]”, the “P. falciparum (IC50) W2” value was 2.3 ng/mL.
“(+)-Octahydro-3,6α-dimethyl-3,12-epoxy-9β-(3′-(m-fluorophenyl)propyl)-12H-pyrano[4,3j]-1,2-benzodioxepin [Compound 37]” was tested, and the “P. falciparum (IC50) W2” value was 12.0 ng/mL.

Same assay, conditions: Selectivity Index = IC50 (Vero cells)/IC50 (P. falciparum), W2
In the case of “(+)-Octahydro-3,6α-dimethyl-3,12-epoxy-9β-(3′-(3,5-bistrifluoromethylphenyl)propyl)-12H-pyrano[4,3j]-1,2-benzodioxepin [Compound 40]”, the “S. I. (W2)” value is reported as >50.
In the case of “(+)-Octahydro3,6α-dimethyl-3,12-epoxy-9β-(3′-(3,5-difluorophenyl)propyl)-12H-pyrano[4,3j]-1,2-benzodioxepin [Compound 41]”, the “S. I. (W2)” value is reported as >207.
For “(+)-Octahydro-3,6α-dimethyl-3,12-epoxy-9β-(3′-(m-fluorophenyl)propyl)-12H-pyrano[4,3j]-1,2-benzodioxepin [Compound 37]”, the “S. I. (W2)” value was >40.

Each substance was assayed on Leishmania donovani promastigotes expressing firefly luciferase (assay: antileishmanial luciferase assay on transgenic promastigotes). Conditions: Table 1 (artemisinin analogues); NA = not active up to 125 μg/ml; read-out: Antileishmanial activity IC50.
Assay type: cell-based
Method: Antileishmanial activity of the compounds was tested on a transgenic cell line of Leishmania donovani promastigotes expressing firefly luciferase.^29a In a 96 well microplate assay, compounds with appropriate dilution were added to the leishmania promastigotes culture (2×10^6 cell/mL). The plates were incubated at 26° C. for 72 hours and growth of leishmania promastigotes was determined by luciferase assay with Steady Glo® reagent (Promega, USA). Pentamidine and Amphotericin B were used as standard antileishmanial agents. The analogues were simultaneously tested for cytotoxicity on VERO cells (monkey kidney fibroblast) by Neutral Red assay.^29b IC50 values for the compounds were computed from the growth inhibition curve.
Work on “(+)-Octahydro-3,6α-dimethyl-3,12-epoxy-9β-(3′-(m-fluorophenyl)propyl)-12H-pyrano[4,3j]-1,2-benzodioxepin [Compound 37]” yielded an IC50 of 88.3 µM.
